Usually IC50 stands for the point on the concentration scale where inhibition reaches its midpoint.

The subject of one assay is SKOV-3. Put plainly: Ovarian carcinoma cytotoxicity assay. Type of assay: cell-based. On the procedure:
(§1) Compounds of the invention (and Anthramycin as a comparison) were evaluated for their cytotoxic activity in ovarian cell lines by Dr Lloyd R. Kelland's group at The Institute of Cancer Research, Sutton, UK. The five cell lines investigated were SKOV-3, A2780/A2780cisR and CH1/CH1cisR (cis R denotes that the cell line is resistant to cisplatin).
(§2) Single viable cells were seeded in growth medium (160 μL) in […] microtitre plates and allowed to attach overnight. […] After 96 hours, the medium was removed and the remaining cells fixed by exposure to 10% trichloroacetic acid on ice for 30 minutes. The wells were then washed 3-4 times with tap water, air dried overnight and treated with 100 μL of sulphorhodamine B (0.4%) dissolved in 1% acetic acid. Staining was allowed to continue for 10-15 minutes, then the wells were washed 3-4 times with 1% acetic acid, air dried and then added to Tris base (100 μL of 10 mM). Plates were then shaken and absorbance readings at 540 nm were determined using a plate reader. By using the Quattro-Pro software package, the IC50 values were calculated from plots of concentration versus percentage absorbance (compared with 8 untreated wells).

For another assay, the system named is CH1cisR. The assay can be described thus: Ovarian carcinoma cytotoxicity assay. The assay is classed as cell-based. On the procedure: as §1, §2
In the next assay the test system is CH1. Put plainly: Ovarian carcinoma cytotoxicity assay. Type of assay: cell-based. On the procedure: as §1, §2
For a further assay, the system named is A2780. The assay can be described thus: Ovarian carcinoma cytotoxicity assay. The assay is classed as cell-based, human. On the procedure: as §1, §2
The test system of the next assay is A2780cisR. Put plainly: Ovarian carcinoma cytotoxicity assay. Type of assay: cell-based, human. On the procedure:
as §1, §2

The subject of a further assay is calf thymus DNA. The assay can be described thus: DNA helix melting temperature assay. The assay is classed as binding. Particulars: [PBD]:[DNA] ratio of 1:5, calf thymus DNA. On the procedure:
The first assay, which is described in G. B. Jones, et al., Anti-Cancer Drug Des., 1990, 5, 249, which is incorporated herein by reference, determines the effect of the test compound on the helix melting temperature of DNA. This assay is designed to give an indication of the strength and extent of cross-linking of the DNA strands by the test compound (i.e. a measure of the stabilisation of the DNA upon ligand binding).
The melting temperature was determined for a 1:5 molar ratio of [ligand] [DNA], where the calf thymus DNA concentration is […] in aqueous sodium phosphate buffer (10 mM sodium phosphate+1 mM EDTA, pH 7.00±0.01). For calf thymus DNA at pH 7.00±0.01, the melting temperature is 67.83±0.06° C. (mean value from 30 separate determinations).

The mark [1] stands for this setting: Homo sapiens, SK-OV-3, 96 h, read-out: IC50 Skov3, 96 hours, sulphorhodamine B.
Setting [2] is: Homo sapiens, CH1cisR, 96 h, read-out: IC50 CH1cisR, cisplatin-resistant, 96 hours, sulphorhodamine B.
The mark [3] stands for this setting: Homo sapiens, CH1, 96 h, read-out: IC50 CH1, 96 hours, sulphorhodamine B.
The mark [4] stands for this setting: Homo sapiens, A2780, 96 h, read-out: IC50 A2780, 96 hours, sulphorhodamine B.
[5] abbreviates: Homo sapiens, A2780cisR, 96 h, read-out: IC50 A2780cisR, cisplatin-resistant, 96 hours, sulphorhodamine B.

Where two headings read alike, the source gives them in different places.

Consider `COc1cc2c(cc1OCCCNC(=O)OCC1c3ccccc3-c3ccccc31)N=C[C@@H]1CCCN1C2=O` [UP2088 (205), (11aS) 8-(N-9-fluorenylmethoxycarbonyl)aminopropyloxy-7-methoxy-1,2,3,11a-tetrahydro-5H-pyrrolo[2,1-c][1,4]benzodiazepin-5-one], for which the 50% inhibitory concentration (IC50) with SKOV-3 (96 hours, sulphorhodamine B, read-out: IC50 Skov3) is 14 µM; in the assay with CH1cisR (cisplatin-resistant, 96 hours, sulphorhodamine B, read-out: IC50 CH1cisR), 16 µM; in the assay on CH1 (96 hours, sulphorhodamine B, read-out: IC50 CH1), 12 µM; with A2780 (96 hours, sulphorhodamine B, read-out: IC50 A2780), 11 µM; in the assay on A2780cisR (cisplatin-resistant, 96 hours, sulphorhodamine B, read-out: IC50 A2780cisR), 8.5 µM.
In the case of `COc1cc2c(cc1OCCC(=O)N1CCc3ccccc31)N=C[C@@H]1CCCN1C2=O` [UP2007 (165), 1, (2,3-dihydro-1H-indolyl)-3-(7-methoxy-5-oxy(11as)-2,3,5,11a-tetrahydro-1H-benzo[e]pyrrolo[1,2-a][1,4]diazepin-8-yloxy)-1-propanone], the IC50 in the assay with SKOV-3 (read-out: IC50 Skov3, 96 hours, sulphorhodamine B) amounted to 5.8 µM; in the assay on CH1cisR (read-out: IC50 CH1cisR, cisplatin-resistant, 96 hours, sulphorhodamine B), 3 µM; with CH1 (read-out: IC50 CH1, 96 hours, sulphorhodamine B), 1.5 µM; in the assay with A2780 (read-out: IC50 A2780, 96 hours, sulphorhodamine B) it was 1.55 µM; in the assay with A2780cisR (read-out: IC50 A2780cisR, cisplatin-resistant, 96 hours, sulphorhodamine B) it was 4.9 µM.
Regarding `Cc1ccc2c(c1O)NC(O)C1CC(/C=C/C(N)=O)=CN1C2=O` (stereo not drawn) [Anthramycin, anthramycin, reference compound], the half-inhibitory concentration (IC50) came out at 0.16 µM in the assay with SKOV-3 (setting [1]); 0.05 µM in the assay on CH1cisR (setting [2]); 0.062 µM in the assay with CH1 (setting [3]); 0.155 µM with A2780 (setting [4]); 0.16 µM with A2780cisR (setting [5]).
With `C/C=C1\C[C@H]2C=Nc3cc(O)c(OC)cc3C(=O)N2C1` [Tomamycin, tomaymycin], in the assay on calf thymus DNA (pH 7.00, 0 h), the “Induced ΔTa after incubation at 37° C. for 0 h” value stood at 0.97 °C. Further, in the assay with calf thymus DNA (pH 7.00, 4 h), the “Induced ΔTa after incubation at 37° C. for 4 h” value came out at 2.38 °C. Further, the “Induced ΔTa after incubation at 37° C. for 18 h” value with calf thymus DNA (pH 7.00, 18 h) was 2.56 °C.
For `COc1cccc2c1N=C[C@@H]1CCCN1C2=O` [UP2024 (101), (11aS)-9-methoxy-1,2,3,11a-tetrahydro-5H-pyrrolo[2,1-c][1,4]benzodiazepin-5-one], the half-maximal inhibitory concentration (IC50) with SKOV-3 (setting [1]) was 2.35 µM; in the assay on CH1cisR (setting [2]), 1.25 µM; in the assay on CH1 (setting [3]), 1.45 µM; in the assay on A2780 (setting [4]), 1.4 µM; in the assay with A2780cisR (setting [5]), 1.8 µM.
Take `COc1cc2c(cc1OC)C(=O)N1C=C(c3ccccc3)C[C@H]1C=N2` [UP2095 (181), (11aS)-1,11a-dihydro-7,8-dimethoxy-2-phenyl-5H-pyrrolo[2,1-c][1,4]benzodiazepin-5-one]: the IC50 in the assay on SKOV-3 (setting [1]), in the assay with CH1cisR (setting [2]), in the assay with CH1 (setting [3]), in the assay with A2780 (setting [4]) and with A2780cisR (setting [5]) was < 0.05 µM in each case.
`C=CC1=CN2C(=O)c3cc(OC)c(OC)cc3N=C[C@@H]2C1` [UP2089 (177), (11aS)-1,11a-dihydro-7,8-dimethoxy-2-ethenyl-5H-pyrrolo[2,1-c][1,4]benzodiazepin-5-one]: the IC50 is 0.0054 µM with SKOV-3 (setting [1]); 0.0023 µM in the assay with CH1cisR (setting [2]); < 0.0025 µM in the assay with CH1 (setting [3]); 0.0022 µM in the assay on A2780 (setting [4]); 0.0042 µM in the assay with A2780cisR (setting [5]).
In the case of `C/C=C1\C[C@H]2C=Nc3cc(OCc4ccccc4)c(OC)cc3C(=O)N2C1` [UP2100 (207)], the IC50 in the assay with SKOV-3 (setting [1]) was 0.081 µM; in the assay on CH1cisR (setting [2]) it was < 0.05 µM; with CH1 (setting [3]) it was < 0.05 µM; in the assay with A2780 (setting [4]), < 0.05 µM; with A2780cisR (setting [5]), 0.066 µM.
Consider `COc1cc2c(cc1OCc1ccccc1)N=C[C@@H]1CC(CC#N)=CN1C2=O` [UP2074 (10)], for which the IC50 with SKOV-3 (setting [1]) stood at 0.52 µM; with CH1cisR (setting [2]), 0.27 µM; with CH1 (setting [3]), 0.105 µM; with A2780 (setting [4]), 0.155 µM; in the assay with A2780cisR (setting [5]), 0.43 µM.
With `COc1cc2c(c(OC)c1O)N=CC1CC(=O)CN1C2` (stereo not drawn) [UP2021 (130), 7,9-dimethoxy-8-Hydroxy-1,2,3,11a-tetrahydropyrrolo[2,1-c][1,4]benzodiazepin-2-one], the IC50 in the assay on SKOV-3 (setting [1]) was > 100 µM; in the assay with CH1cisR (setting [2]) it was 47 µM; in the assay with CH1 (setting [3]), 51 µM; in the assay on A2780 (setting [4]) it was > 100 µM; in the assay with A2780cisR (setting [5]) it was > 100 µM.
Regarding `COc1cc2c(c(OC)c1OC)N=C[C@@H]1CCCN1C2=O` [UP2086 (120), 7,8,9-Trimethoxy-1,2,3,11a-tetrahydro-5H-pyrrolo[2,1-c][1,4]benzodiazepin-5-one], the IC50 in the assay on SKOV-3 (setting [1]) came to 2.5 µM; in the assay on CH1cisR (setting [2]), 2.2 µM; in the assay on CH1 (setting [3]), 1.6 µM; with A2780 (setting [4]), 0.84 µM; with A2780cisR (setting [5]) it was 0.45 µM.
As for `COc1cc2c(cc1OCCC(=O)N1CCCCC1)N=C[C@@H]1CCCN1C2=O` [UP2006 (163)], the IC50 in the assay on SKOV-3 (setting [1]) was 23.5 µM; in the assay on CH1cisR (setting [2]), 7.9 µM; in the assay on CH1 (setting [3]), 4.9 µM; with A2780 (setting [4]), 3.2 µM; in the assay with A2780cisR (setting [5]), 14.5 µM.
Consider `COC(=O)CC1=CN2C(=O)c3cc(OC)c(OCCCOc4cc5c(cc4OC)C(=O)N4C=C(CC(=O)OC)C[C@H]4C=N5)cc3N=C[C@@H]2C1` [UP2053 (56)], for which the concentration for half-maximal inhibition (IC50) in the assay on SKOV-3 (setting [1]) was found to be 0.1 µM; in the assay with CH1cisR (setting [2]) it was 0.011 µM; with CH1 (setting [3]), 0.0115 µM; in the assay on A2780 (setting [4]), 0.0054 µM; in the assay with A2780cisR (setting [5]) it was 0.058 µM.
As to `COc1cc2c(cc1OC)C(=O)N1CCC[C@H]1C=N2` [UP2025 (106), (11aS)-7,8-dimethoxy-1,2,3,11a-tetrahydro-5H-pyrrolo [2,1-c][1,4]benzodiazepin-5-one], the IC50 in the assay with SKOV-3 (setting [1]) was determined as 1.7 µM; in the assay with CH1cisR (setting [2]) it was 0.11 µM; in the assay on CH1 (setting [3]), 0.082 µM; with A2780 (setting [4]) it was 0.064 µM.
Turning to `COc1cc2c(c(OC)c1OCCCOc1c(OC)cc3c(c1OC)N=C[C@@H]1CCCN1C3=O)N=C[C@@H]1CCCN1C2=O` [UP2020 (90)], the IC50 in the assay on SKOV-3 (setting [1]) was determined as 1.6 µM; in the assay with CH1cisR (setting [2]) it was 2.8 µM; in the assay on CH1 (setting [3]), 1.7 µM; with A2780 (setting [4]) it was 10 µM; in the assay with A2780cisR (setting [5]) it was 7.2 µM.
With `COc1ccc(C2=CN3C(=O)c4cc(OC)c(OC)cc4N=C[C@@H]3C2)cc1` [UP2092 (179), (11aS)-1,11a-dihydro-7,8-dimethoxy-2-(4-methoxyphenyl)-5H-pyrrolo[2,1-c][1,4]benzodiazepin-5-one], the IC50 in the assay on SKOV-3 (setting [1]) worked out at 0.0098 µM; in the assay with CH1cisR (setting [2]), 0.0082 µM; with CH1 (setting [3]), 0.0016 µM; with A2780 (setting [4]) it was 0.004 µM; in the assay with A2780cisR (setting [5]), 0.007 µM.
With `COc1cc2c(c(OC)c1OCc1ccccc1)N=C[C@@H]1CCCN1C2=O` [UP2022 (143), 8-Benzyloxy-7,9-dimethoxy-1,2,3,11a-tetrahydropyrrolo[2,1-c][1,4]benzodiazepin-5-one], the IC50 is 33 µM in the assay on SKOV-3 (setting [1]), 11 µM with CH1cisR (setting [2]), 14 µM in the assay on CH1 (setting [3]) and 16.5 µM with A2780cisR (setting [5]).

The values are drawn from patent publication US7049311B1, “Pyrrolbenzodiazepines” (Spirogen Limited, priority 1998, dated 2006).
